We go through two compounds from PMC2957683, “IKKβ inhibitor identification: a multi-filter driven novel scaffold” (2010).

This test concerns the target T1, IKKβ (Homo sapiens, UniProt O14920).
T1 construct: gene IKBKB
T1 sequence (O14920 1-756): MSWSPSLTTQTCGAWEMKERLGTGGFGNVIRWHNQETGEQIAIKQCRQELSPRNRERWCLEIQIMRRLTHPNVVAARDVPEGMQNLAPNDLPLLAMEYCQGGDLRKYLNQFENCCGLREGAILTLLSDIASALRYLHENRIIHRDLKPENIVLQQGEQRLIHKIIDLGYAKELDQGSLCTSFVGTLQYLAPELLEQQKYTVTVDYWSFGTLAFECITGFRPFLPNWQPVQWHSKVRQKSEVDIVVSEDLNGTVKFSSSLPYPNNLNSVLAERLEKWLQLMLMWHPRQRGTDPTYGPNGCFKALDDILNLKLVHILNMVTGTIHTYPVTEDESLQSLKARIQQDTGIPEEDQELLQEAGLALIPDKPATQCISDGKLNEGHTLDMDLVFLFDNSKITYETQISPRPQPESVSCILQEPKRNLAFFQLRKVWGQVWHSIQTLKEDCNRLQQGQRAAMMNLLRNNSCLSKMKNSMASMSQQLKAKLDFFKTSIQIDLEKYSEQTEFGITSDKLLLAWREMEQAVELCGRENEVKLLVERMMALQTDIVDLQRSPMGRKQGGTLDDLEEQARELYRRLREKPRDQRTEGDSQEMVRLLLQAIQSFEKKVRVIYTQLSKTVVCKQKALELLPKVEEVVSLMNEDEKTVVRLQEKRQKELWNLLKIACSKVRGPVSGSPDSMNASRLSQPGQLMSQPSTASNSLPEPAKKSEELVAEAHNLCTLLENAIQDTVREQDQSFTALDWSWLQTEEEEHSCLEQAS
Kind of test: IMAP TR-FRET kinase assay with IKKβ enzyme (Millipore), IκBα-derived peptide substrate, […] ATP. The class given is biochemical.

For `COc1ccc(-c2nc3c(c(SCC(=O)Nc4cccc(O)c4)n2)Cc2c(CO)cnc(C)c2O3)cc1` [VH01], the IC50 was 20.3 µM.
As for `N#Cc1c(C2CCCNC2)cc(-c2ccccc2O)nc1N` (centres unmarked) [Bayer-5a], the IC50 came to 0.17 µM.
